Experiments:
[1] = Auto-hydrolysis of 4-MU esters; format: physicochemical; conditions: 30 μM, AMT assay buffer, 10 mM CHAPS, pH 5.5, 1800 seconds; compared to e.g. butyrate (4-MUB)
[2] = tested on: lipase activity in drug substance samples (Product G, B, F) and UF/DF sample of Product D; assay: 4-MUD lipase assay with or without CHAPS; format: biochemical; conditions: 10 mM CHAPS (above CMC) vs without, 30 μM 4-MUD, pH 5.5
Experimental: First, a surfactant was tested above its CMC (critical micelle concentration). Therefore 10 mM CHAPS were added to the assay. […] The samples tested were drug substance samples comprising Product G, Product B, Product F and a sample following ultrafiltration/diafiltration of Product D, each added at 72 μL per well. […] Without being bound by theory it is hypothesized that a surfactant creates an environment that promotes lipase activity by allowing the rearrangement and opening of the lid or flap, which has been described to cover the active site (Grochulski P, Li Y, Schrag J D, et al. Protein Sci 1994; 3:82-91 and Grochulski P, Bouthillier F, Kazlauskas R J, et al. Biochemistry 1994; 33:3494-500). Therefore, a concentration of 10 mM CHAPS in the final reaction-mix was selected.

[3] = derivable from literature; cited from earlier work
[4] = tested on: hydrolytic activity of PPL and in BDS B and BDS E; assay: Comparison of surfactants in 4-MUD lipase assay; format: biochemical; conditions: 10 mM CHAPS vs 0.25% Triton X-100 vs 0.25% Triton X-100 and 0.125% gum arabicum, pH 5.5
Experimental: Therefore, hydrolytic activity of PPL (0.024 mg/ml in the reaction mixture) and in BDS B and BDS E (2.4 mg/ml in the reaction mixture) was measured in ATM buffer, pH 5.5, with either 10 mM CHAPS, 0.25% Triton X-100 or 0.25% Triton X-100 and 0.125% gum arabicum. […] Gum arabicum is an emulsifier and no effect of gum arabicum on the activity has been observed in any of the experiments.

[5] = tested on: hydrolytic activity of an exemplary drug product sample; conditions: NaCl 7.8125-1000 mM, 30 μM 4-MUD, AMT buffer without NaCl, pH 5.5
Experimental: Therefore, the influence of the ionic strength on the measured hydrolytic activity was tested. Hydrolytic activity of an exemplary drug product sample was measured in the presence of varying concentrations of NaCl (1000 mM-7.8125 mM).

[6] = tested on: hydrolytic activity of a drug product sample (Product D); assay: 4-MUD lipase assay with Orlistat; format: biochemical; conditions: Orlistat 7.3 nM-20 μM, 30 μM 4-MUD, AMT buffer pH 5.5
[7] = tested on: hydrolytic activity responsible for polysorbate degradation in a drug product sample (Product D); assay: PS20 degradation in drug product, HPLC-CAD; conditions: 1 μM Orlistat, 0.2 mg/mL PS20, RT, pH 5.5, up to 56 days, vs control (DMSO only)
PPL = biological target: T1, PPL (Sus scrofa, UniProt P00591); conditions: Jahn et al.; cited from earlier work
T1 sequence (P00591 1-450): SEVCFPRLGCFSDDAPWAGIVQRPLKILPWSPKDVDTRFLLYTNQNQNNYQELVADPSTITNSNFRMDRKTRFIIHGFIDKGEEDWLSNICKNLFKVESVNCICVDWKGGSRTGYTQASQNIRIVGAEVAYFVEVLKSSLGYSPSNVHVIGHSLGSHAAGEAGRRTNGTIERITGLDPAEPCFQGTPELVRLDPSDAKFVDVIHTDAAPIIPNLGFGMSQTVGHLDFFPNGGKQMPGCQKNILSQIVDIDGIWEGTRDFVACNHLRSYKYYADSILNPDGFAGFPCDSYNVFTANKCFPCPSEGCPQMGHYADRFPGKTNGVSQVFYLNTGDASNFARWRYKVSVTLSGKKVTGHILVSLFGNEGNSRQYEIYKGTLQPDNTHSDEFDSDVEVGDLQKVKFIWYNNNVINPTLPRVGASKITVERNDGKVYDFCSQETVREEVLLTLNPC

CCCCCCCCCC(=O)Oc1ccc2c(C)cc(=O)oc2c1 [4-MUD, 4-methylumbelliferyl decanoate]
auto-hydrolysis [1]: better resistance to auto-hydrolysis

C[C@H](CCC(=O)NCCC[N+](C)(C)CCCS(=O)(=O)[O-])[C@H]1CC[C@H]2[C@@H]3[C@H](O)C[C@@H]4C[C@H](O)CC[C@]4(C)[C@H]3C[C@H](O)[C@]12C [CHAPS, 3-[(3-cholamidopropyl)dimethylammonio]-1-propanesulfonate]
effect on lipase hydrolysis [2]: lipase hydrolysis was increased | critical micelle concentration (CMC) [3]: about 6 mM | hydrolytic activity compared between surfactants [4]: outperforms Triton X-100 and Triton X-100 and gum arabicum

C[C@H](CCC(=O)NCCC[N+](C)(C)CC(O)CS(=O)(=O)[O-])[C@H]1CC[C@H]2[C@@H]3[C@H](O)C[C@@H]4C[C@H](O)CC[C@]4(C)[C@H]3C[C@H](O)[C@]12C (stereo partly shown) [CHAPSO, 3-([3-Cholamidopropyl)dimethylammonio]-2-hydroxy-1-propanesulfonate]
critical micelle concentration (CMC) [3]: about 8 mM

[Cl-].[Na+] [NaCl]
NaCl concentration at which lipase activity decreased [5]: ≥ 250 mM

CCCCCCCCCCC[C@@H](C[C@@H]1OC(=O)[C@H]1CCCCCC)OC(=O)[C@H](CC(C)C)NC=O [Orlistat]
inhibition of lipase activity [6]: inhibited lipase activity in a concentration dependent manner | degradation of PS20 [7]: reduced degradation of PS20

CCCCCCCCCCCC[N+](C)(C)CCCS(=O)(=O)[O-] [Zwittergent 3-12, n-Dodecyl-N,N-dimethyl-3-ammonio-1-propanesulfonate]
critical micelle concentration (CMC) [3]: 2 to 4 mM

polyethylene glycol tert-octylphenyl ether [Triton X-100]
effect on PPL activity (PPL): de-activating effect
